In patent US20090088380A1, “GHRH ANALOGS AND THERAPEUTIC USES THEREOF” (priority 2007, published 2009):
Non-standard residues stand in square brackets, D forms with d. Residues, ends and D or L forms follow the SMILES beside them.

Key:
[1] = biological target: T1, hGHRH(1-44)-NH2 binding sites in rat anterior pituitary (Rattus norvegicus, UniProt Q02644); assay: Relative binding affinity in rat anterior pituitary preparations, [125I-Tyr10]hGHRH(1-44)-NH2 radioligand; details: values compared to hGHRH(1-29)-NH2
T1 construct: from tissue; host or cells: anterior pituitary of 2-month old male Sprague Dawley rats
T1 sequence (Q02644 23-423 isoform Q02644-2 limits assumed): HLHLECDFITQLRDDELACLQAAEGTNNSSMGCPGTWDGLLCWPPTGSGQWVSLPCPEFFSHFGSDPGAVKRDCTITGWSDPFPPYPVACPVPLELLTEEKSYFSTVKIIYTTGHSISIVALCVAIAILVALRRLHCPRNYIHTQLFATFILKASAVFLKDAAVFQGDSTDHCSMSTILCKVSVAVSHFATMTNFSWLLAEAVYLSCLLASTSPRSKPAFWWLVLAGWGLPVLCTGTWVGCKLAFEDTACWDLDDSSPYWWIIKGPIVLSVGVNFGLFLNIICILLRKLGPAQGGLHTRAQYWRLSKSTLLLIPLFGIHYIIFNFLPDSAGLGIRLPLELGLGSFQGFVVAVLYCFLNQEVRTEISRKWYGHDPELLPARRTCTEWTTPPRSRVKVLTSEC
Source text: Initial selection of a candidate from the original 14 polysubstituted GHRH analogs described in the U.S. Pat. No. 5,854,216 was based upon in vitro data on receptor affinity in 2-month old male Sprague Dawley rat anterior pituitary preparations. The embodiments are based on the affinity of selected GHRH analogs for the human GHRH receptor (hGHRH-R) in baby hamster kidney (BHK) cells transfected with hGHRH-R, and on resistance to proteolysis in rat serum, human plasma or human serum. More precisely, the preferred drug candidates were selected, as compared to hGHRH(1-29)-NH2, for: i-their increased relative binding affinity to hGHRH(1-44)-NH2 binding sites in rat anterior pituitary in vitro as well as to hGHRH-R in BHK-expressing cells in vitro; and ii-their relative resistance to proteolysis in vitro.

[2] = biological target: T2, human GHRH receptor (Homo sapiens, UniProt Q02643); assay: 125I-GHRH competitive binding assay in BHK cell membrane preparations; details: in comparison with hGHRH(1-29)NH2; ratio IC50 hGHRH(1-29)-NH2/IC50 analog
T2 construct: expressed in transfected cells; host or cells: BHK (baby hamster kidney) 570 cells, membrane preparations
T2 sequence (Q02643 23-423): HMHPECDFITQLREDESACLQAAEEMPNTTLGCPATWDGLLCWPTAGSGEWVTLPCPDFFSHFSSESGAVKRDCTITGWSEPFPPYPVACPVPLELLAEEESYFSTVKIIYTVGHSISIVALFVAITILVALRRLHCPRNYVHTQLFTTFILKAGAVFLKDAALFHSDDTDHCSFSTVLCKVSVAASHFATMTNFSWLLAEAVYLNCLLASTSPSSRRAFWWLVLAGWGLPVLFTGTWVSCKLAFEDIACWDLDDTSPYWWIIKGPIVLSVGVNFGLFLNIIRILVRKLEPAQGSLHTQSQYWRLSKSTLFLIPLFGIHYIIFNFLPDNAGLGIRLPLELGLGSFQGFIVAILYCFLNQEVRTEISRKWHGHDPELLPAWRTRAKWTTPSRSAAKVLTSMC
Description: Non specific binding was determined in presence of 1 μM hGHRH(1-29)NH2. Incubation was carried out at equilibrium (23° C., 60 min) and stopped by centrifugation (12,000 g, 5 min, at 4° C.). The radioactivity content in pellets was determined by gamma counting. The affinity of hGHRH(1-29) NH2 was tested in each experiment to assess the validity of the assay and determine the relative affinity of the analogs.
Values represent the mean±SEM of 3 experiments performed in triplicate for the analogs and the mean±SEM of 2 experiments performed in triplicate for hGHRH(1-44) NH2.
For the binding assay results presented in Tables 8 to 11, values represent the mean±SEM of 8 independent experiments performed in triplicate for the analogs and the mean±SEM of 4 experiments performed in triplicate for hGHRH(1-29)NH2. […] The relative affinity was obtained by taking the ratio IC50 of hGHRH (1-29)-NH2/IC50 analog.

[3] = In vitro proteolysis assay in rat serum; format: in vitro ADME; details: for Residual concentration (% of initial concentration): incubation 0 min
Description: (§1) Proteolysis was stopped by adding 800 μl of ice-cold stop buffer (potassium-phosphate buffer, acidified to pH 0.8 with trifluoroacetic acid (TFA) and boiling 5 min (rat serum only). After centrifugation (12000 g, 5 min, 4° C.) (rat serum only), serum-peptide mixtures were passed through a conditioned Sep-Pak C-18 cartridge to extract native GHRH or a GHRH analog residual concentrations from serum proteins. The native GHRH or the analog was eluted in 2 ml of 50% acetonitrile-0.01% TFA/50% 0.01% aqueous TFA. 200 μl of extracted peptide, representing 1 μg of GHRH or analog at time 0, was quantified by analytical HPLC, using one μ-Bondapak C18 column (10 μm particle size, 0.39×15 cm) (rat serum) or two C18 columns in series (human serum and plasma) and a binary solvent system composed of NaClO4 0.01 M, pH 2.5 and acetonitrile. A linear gradient from 30 to 60% acetonitrile over 45 min (rat serum) or 30 to 50% (human serum and plasma) was used. Elution of intact peptide was monitored at 214 nm and residual concentration determined by assessment of peak surface areas.

[4] = biological target: rat GHRH receptor (rat) (UniProt Q02644); assay: competition with [125I-Tyr10]hGHRH(1-44)-NH2, rat anterior pituitary membrane preparations
[5] = biological target: human GHRH receptor (human) (UniProt Q02643); assay: competition with [125I-Tyr10]hGHRH(1-44)NH2, BHK cell membrane preparations expressing the human GHRH receptor; details: for Relative binding affinity (R1) in comparison with hGHRH(1-29)NH2: scale: ratio IC50 of hGHRH
[6] = In vitro proteolysis assay in human serum; format: in vitro ADME; details: human serum
Description: as §1

[7] = test system: Rat Growth Hormone; assay: In vivo GH secretion in adult female Sprague-Dawley rats, single SC or IV injection, RIA; details: 0.03 mg/kg BW IV
Description: In order to assess such use of the GHRH analogs, the following experiments were undertaken. More specially, the goal was to assess the pharmacodynamic and pharmacokinetic profiles and acute toxicity of GHRH analog #5 when administered once by subcutaneous or intravenous injection to female Sprague-Dawley rats followed by a 14-day observation period and the pharmacodynamic profile in a male Beagle dog when the GHRH analog was administered at escalating doses to the same dog by subcutaneous injection with at least 2-day washout period. The above GHRH analog is a variation of a synthetic acetate salt of an amidated synthetic 29-amino acid peptide that corresponds to the amino-terminal segment of the naturally-occurring human growth hormone—releasing hormone (GHRH) with four amino acid substitutions in positions 2, 10, 15, and 22.
Human GHRH analog #5 in 0.9% sodium chloride for injection USP was administered once either by intravenous (IV) or subcutaneous (SC) injection to female rats followed by a 14-day observation period, as shown in Table 2. Prior to administration, all dosing formulations were filtered using a 0.22 μm filter to ensure sterility. The actual amount of GHRH analog #5 administered was calculated and adjusted based on the animal's most recent body weight. Dosing started at approximately the same time each day, commencing at 9:00 am ±30 minutes.
For pharmacodynamic investigations, blood samples (approximately 1.3 ml) were collected from 2 animals per group per time point (maximum 3 time points/animal) via a jugular venipuncture at the following time points: […] All blood samples were collected into potassium EDTA tubes and centrifuged under refrigeration (2 to 8° C., 1500 g for 10 minutes).
Rat Growth Hormone Determination • Plasma GH was determined by Linco Diagnostic Services using their own kit. Linco's Rat Growth Hormone radioimmunoassay kit (RIA) (RGH-45HK) is intended for the quantitative determination of Rat Growth Hormone in serum, plasma, and tissue culture media. It is a completely homologous assay since the antibody was raised against recombinant Rat Growth Hormone and both the tracer and the standard are prepared with the same recombinant Rat Growth Hormone. The kit includes standards, antibody, tracer, quality controls, precipitating reagents and buffer necessary to complete a RIA. The assay was conducted under the following conditions: overnight; equilibrium incubation at room temperature; sample volume: 100 μl serum, plasma, or cell culture media. The label used was 125I-Rat Growth Hormone (20,000 CPM/tube).

[8] = test system: Canine Growth Hormone; assay: In vivo GH secretion in a male Beagle dog, escalating SC doses, RIA; details: 0.01 mg/kg BW SC
Source text: In order to assess such use of the GHRH analogs, the following experiments were undertaken. […] The above GHRH analog is a variation of a synthetic acetate salt of an amidated synthetic 29-amino acid peptide that corresponds to the amino-terminal segment of the naturally-occurring human growth hormone—releasing hormone (GHRH) with four amino acid substitutions in positions 2, 10, 15, and 22.
Prior to administration, all dosing formulations were filtered using a 0.22 μm filter to ensure sterility. […] Dosing started at approximately the same time each day, commencing at 9:00 am ±30 minutes.
For pharmacodynamic investigations, blood samples (approximately 1.0 ml) were collected from the dog on each treatment day via a jugular venipuncture at the following time points: pre-dose, 7, 15, 22, 30, 45, and 60 minutes post dosing. All blood samples were collected into potassium EDTA tubes and centrifuged under refrigeration (2 to 8° C., 1500 g for 10 minutes).
Plasma GH was determined by Linco Diagnostic Services using their own kit. Linco's Porcine/Canine Growth Hormone radioimmunoassay kit (RIA) (PGH-46HK) has been developed to quantitate Growth Hormone in plasma, serum, and tissue culture media. It is a completely homologous assay since the antibody was raised against recombinant Porcine Growth Hormone and both the standard and tracer are prepared with recombinant Porcine Growth Hormone. Since the amino acid sequences of Porcine Growth Hormone and Canine Growth Hormone are identical, this assay developed for Porcine Growth Hormone measures Canine Growth Hormone levels with equal efficiency. All components are included (standards, antibody, tracer, quality controls, precipitating reagents and buffer) necessary to complete a RIA. The assay was conducted under the following conditions: overnight; equilibrium incubation at room temperature; sample volume: 100 μl serum, plasma, or cell culture media.

With `CC[C@H](C)[C@H](NC(=O)[C@H](C)NC(=O)[C@H](CC(=O)O)NC(=O)[C@@H](C)NC(=O)[C@@H](N)Cc1ccc(O)cc1)C(=O)N[C@@H](Cc1ccccc1)C(=O)N[C@H](C(=O)N[C@@H](CC(N)=O)C(=O)N[C@@H](CO)C(=O)N[C@H](Cc1ccc(O)cc1)C(=O)N[C@@H](CCCNC(=N)N)C(=O)N[C@@H](CCCCN)C(=O)N[C@H](C(=O)N[C@@H](CC(C)C)C(=O)NCC(=O)N[C@@H](CCC(N)=O)C(=O)N[C@@H](CC(C)C)C(=O)N[C@@H](CO)C(=O)N[C@@H](C)C(=O)N[C@@H](CCCNC(=N)N)C(=O)N[C@@H](CCCCN)C(=O)N[C@@H](CCCCN)C(=O)N[C@@H](CC(C)C)C(=O)N[C@@H](CCC(N)=O)C(=O)N[C@@H](CC(=O)O)C(=O)N[C@H](C(=O)N[C@@H](CCSC)C(=O)N[C@@H](CO)C(=O)N[C@@H](CCCNC(=N)N)C(N)=O)[C@@H](C)CC)C(C)C)[C@@H](C)O` [GHRH analog #3, [D-Ala^2, D-Tyr^10, Lys^22] hGHRH(1-29)-NH2] (H-Y[dA]DAIFTNS[dY]RKVLGQLSARKKLQDIMSR-NH2; N-terminus assumed) the “Relative binding affinity in rat anterior pituitary” value [1] was 4.90 ± 2.70, the “Relative binding affinity (R1) in hGHRH-R BHK-expressing cells” value [2] was 239 ± 55 and the “Relative resistance to proteolysis in vitro” value ([3]; compared to hGHRH(1-29)-NH2) was 2.25. For the same molecule, the “Residual concentration (% of initial concentration)” value [3] was 100 ± 0 % of initial concentration.
Work on “[Ala8, Ala9, Ala15, Ala22] hGHRH(1-29)-NH2 (peptide)” yielded a Relative binding affinity in rat anterior pituitary (relative to hGHRH(1-29)-NH2) [4] of 7.74, an IC50 [5] of 0.77 nM and a Relative binding affinity (R1) in comparison with hGHRH(1-29)NH2 [5] of 3.7.
In the case of `CC[C@H](C)[C@H](NC(=O)[C@H](C)NC(=O)[C@H](CC(=O)O)NC(=O)[C@H](C)NC(=O)[C@@H](N)Cc1ccc(O)cc1)C(=O)N[C@@H](Cc1ccccc1)C(=O)N[C@H](C(=O)N[C@@H](CC(N)=O)C(=O)N[C@@H](CO)C(=O)N[C@@H](Cc1ccc(O)cc1)C(=O)N[C@@H](CCCNC(=N)N)C(=O)N[C@@H](CCCCN)C(=O)N[C@H](C(=O)N[C@@H](CC(C)C)C(=O)NCC(=O)N[C@@H](CCC(N)=O)C(=O)N[C@@H](CC(C)C)C(=O)N[C@@H](CO)C(=O)N[C@@H](C)C(=O)N[C@@H](CCCNC(=N)N)C(=O)N[C@@H](CCCCN)C(=O)N[C@@H](CC(C)C)C(=O)N[C@@H](CC(C)C)C(=O)N[C@@H](CCC(N)=O)C(=O)N[C@@H](CC(=O)O)C(=O)N[C@H](C(=O)N[C@@H](CCSC)C(=O)N[C@@H](CO)C(=O)N[C@@H](CCCNC(=N)N)C(N)=O)[C@@H](C)CC)C(C)C)[C@@H](C)O` [hGHRH(1-29)NH2, reference compound], the “Residual concentration (% of initial concentration)” value [3] is reported as 100 ± 0 % of initial concentration, the “Mean residual amount (%)” value ([6]; IT 0 min) is reported as 100% and the “Mean residual amount (%)” value ([6]; IT 420 min) is reported as “disappeared totally”.
Work on “[D-Ala2, Ala8, D-Tyr10, Ala15, D-Lys21, Lys22] hGHRH(1-29)-NH2 (peptide)” yielded a Relative binding affinity in rat anterior pituitary (relative to hGHRH(1-29)-NH2) [4] of 5, an IC50 [5] of 37 nM and a Relative binding affinity (R1) in comparison with hGHRH(1-29)NH2 [5] of 0.05.
Work on “[D-Ala2, D-Tyr10, Lys22] hGHRH(1-29)-NH2 (peptide)” yielded a Relative binding affinity in rat anterior pituitary (relative to hGHRH(1-29)-NH2) [4] of 4.9, an IC50 [5] of 0.0063 nM and a Relative binding affinity (R1) in comparison with hGHRH(1-29)NH2 [5] of 239.
In the case of hGHRH(1-44)NH2 [reference compound], the “Plasma Rat Growth Hormone” value ([7]; 4 min) is reported as 43.7 ng/mL, the “Plasma Rat Growth Hormone” value ([7]; 10 min) is reported as 83.9 ng/mL and the “Plasma Rat Growth Hormone” value ([7]; 15 min) is reported as 27.9 ng/mL. For the same molecule, the “Plasma Rat Growth Hormone” value ([7]; 45 min) was 14.1 ng/mL, the “Plasma Rat Growth Hormone” value ([7]; 300 min) was 21.7 ng/mL and the “GH AUC 45 min” value ([7]; in ng·min/mL (unit assumed)) was 1380. For the same molecule, the “GH AUC 300 min” value ([7]; in ng·min/mL (unit assumed)) was 5754, the “Plasma Rat Growth Hormone” value ([7]; −120 min) was 20.2 ng/mL and the “Canine Growth Hormone” value ([8]; 0 min) was 5 ng/mL. The “Canine Growth Hormone” value ([8]; 7 min) was 1 ng/mL, the “Canine Growth Hormone” value ([8]; 15 min) was 1.99 ng/mL and the “Canine Growth Hormone” value ([8]; 22 min) was 4 ng/mL. The “Canine Growth Hormone” value ([8]; 30 min) was 5 ng/mL, the “Canine Growth Hormone” value ([8]; 45 min) was 3 ng/mL and the “Canine Growth Hormone” value ([8]; 60 min) was 1.99 ng/mL.
For “[D-Ala2, Ala8, Ala15, Lys22] hGHRH(1-29)-NH2 (peptide)”, the Relative binding affinity in rat anterior pituitary (relative to hGHRH(1-29)-NH2) [4] was 13.3, the IC50 [5] was 0.033 nM and the Relative binding affinity (R1) in comparison with hGHRH(1-29)NH2 [5] was 499.
